Drawing on PubChem BioAssay (NCI), this text covers GI50 and TGI for nine molecules.

Assay in all cases: DTP human tumour cell line panel, 48 h
Test [1] relates to U251 CNS.
The subject of test [2] is MALME-3M melanoma.
In test [3] the test system is SF-268 CNS.
The subject of test [4] is UACC-257 melanoma.
Test [5] deals with NCI-H460 lung.
Test [6] has as its system SK-OV-3 ovarian.
For test [7], the system named is DU-145 prostate.
For test [8], the system named is UACC-62 melanoma.

Values joined by “and” are separate entries in the source; they are usually repeats but may differ in a detail not shown here. Equal entries are not always repeated.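 96-well plates; 48 h exposure; 5 concentrations. Endpoints by linear interpolation between flanking doses. Not reached: highest tested concentration assigned. GI50: concentration for 50% inhibition of growth. Definition used: TGI = concentration required for complete inhibition of growth.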

Take `CC1Cc2c(Cl)ncnc2N(C)c2ccccc21` (centres undefined): the GI50 in test [1] is 3.92 µM; in test [2], 2.03 µM; in test [3] it was 2.77 µM; in test [4], 3.76 µM; in test [5], 3.87 µM; in test [6], 2.37 µM. In addition, the figures for the GI50 in test [7] and in test [8] were 4.45 µM and 3.32 µM, respectively. The TGI was 37.9 µM in test [1]; 7.5 µM in test [2]; 91.6 µM in test [3]; 21 µM in test [4]; above 100 µM in test [5]; 12.6 µM in test [6]. The TGI was above 100 µM in test [7] and 12.8 µM in test [8].
In the case of `O=C1/C=C/[C@@H](O)[C@@H]2C[C@@H](O)C[C@H]2/C=C/CCC[C@H](CCO)O1`, the GI50 in test [1] is 0.382 µM; in test [2], 0.0951 µM; in test [3], 0.0782 µM; in test [4] it was 0.0609 µM; in test [5], 0.382 µM; in test [6], 0.287 µM. Also, the GI50 in test [7] is 0.426 µM; in test [8] it was 0.186 µM. Moreover, the TGI is above 100 µM in test [1]; 0.529 µM in test [2]; above 73 µM in test [3]; above 100 µM in test [4]; above 100 µM in test [5]; above 100 µM in test [6]. In addition, the TGI in test [7] and in test [8] was above 100 µM throughout.
On to `O=C1C2=C(C(=O)c3ccccc31)C(O)(S(=O)(=O)O)C(O)(S(=O)(=O)O)C1N=CC=CC21` (centres undefined), for which the GI50 in test [1] was 3.85 µM and 2.69 µM; in test [2], 10.3 µM and 14.8 µM; in test [3], 3.93 µM and 5.96 µM; in test [4], 10.8 µM; in test [5], 2.84 µM and 1.39 µM; in test [6], 4.61 µM and 8.35 µM. The GI50 in test [7] was 6.09 µM and 5.9 µM; in test [8] it was 6.17 µM and 4.52 µM. In addition, the TGI in test [1] was 28.8 µM and 17.8 µM; in test [2], 36.7 µM and 39 µM; in test [3], 41.4 µM and 32.1 µM; in test [4] it was 47.7 µM; in test [5] it was 11.7 µM and 6.25 µM; in test [6] it was 38.3 µM and 32.4 µM. Also, the TGI in test [7] was 44 µM and 22.2 µM; in test [8] it was 19.4 µM and 18.7 µM.
`CCOC(=O)C1=C(Nc2ccc(OC)cc2)C(N)=NC1=N`: the GI50 in test [1] was 3.81 µM; in test [2] it was 7.29 µM; in test [3], 7.87 µM; in test [4], above 100 µM; in test [5] it was 3.73 µM; in test [6], 2.99 µM. Moreover, the GI50 in test [7] is 3.49 µM; in test [8] it was 2.85 µM. In addition, the TGI was above 100 µM in test [1]; above 100 µM in test [2]; above 100 µM in test [3]; above 100 µM in test [4]; above 100 µM in test [5]; 18.1 µM in test [6]. In addition, the TGI in test [7] and in test [8] was above 100 µM each time.
For `Clc1cnc(Nc2ccc(OCCN3CCCC3)cc2)nc1NCc1ccco1`, the GI50 in test [1] was 2.81 µM; in test [2], 2.1 µM; in test [3], 2.33 µM; in test [4], 2.44 µM; in test [5], 2.04 µM; in test [6] it was 3.62 µM. Besides, the GI50 in test [7] is 3.43 µM; in test [8], 1.83 µM. Further, the TGI stood at 11.4 µM in test [1]; 5.79 µM in test [2]; 6.47 µM in test [3]; 6.32 µM in test [4]; 5.36 µM in test [5]; 34.1 µM in test [6]. Besides, the values for the TGI in test [7] and in test [8] were above 100 µM and 3.73 µM, respectively.
For the molecule `CCOC(=O)N1CCC(N=C2CSc3nnc(-c4cc(C(F)(F)F)cc(C(F)(F)F)c4)n3N2)CC1`, the GI50 in test [1] was 1.77 µM; in test [2] it was 1.68 µM; in test [3], 2.23 µM; in test [4], 1.76 µM; in test [5] it was 2.11 µM; in test [6], 3.21 µM. Besides, the GI50 in test [7] is 2.39 µM; in test [8], 1.64 µM. The TGI in test [1] was found to be 3.53 µM; in test [2], 3.31 µM; in test [3] it was 4.86 µM; in test [4] it was 3.81 µM; in test [5], 4.1 µM; in test [6], 8.71 µM. Also, the TGI turned out to be 6.17 µM in test [7] and 3.36 µM in test [8].
Consider `CN(C(=O)C(C)(C)C)c1ccccc1I(=O)=O`, for which the GI50 in test [1] was 89.1 µM; in test [2], 27.4 µM; in test [3] it was above 100 µM; in test [4] it was above 100 µM; in test [5], above 100 µM; in test [6], above 100 µM. The GI50 in test [7] and in test [8] was above 100 µM throughout. For the same molecule, the TGI in test [1], in test [2], in test [3], in test [4], in test [5] and in test [6] was above 100 µM in each case. The total growth inhibition concentration (TGI) in test [7] and in test [8] was above 100 µM in each case.
Take `Cc1nnc(N/N=C/c2ccc([N+](=O)[O-])o2)[nH]c1=O`: the GI50 in test [1] is 0.289 µM; in test [2] it was 0.97 µM; in test [3], 0.521 µM; in test [4] it was 0.0512 µM; in test [5] it was 3.19 µM; in test [6], 3.77 µM. For the same molecule, the GI50 in test [7] is 2.1 µM; in test [8], 0.666 µM. The total growth inhibition concentration (TGI) in test [1] was above 100 µM; in test [2] it was 4.3 µM; in test [3], above 57.9 µM; in test [4], 5.26 µM; in test [5], 14.6 µM; in test [6] it was above 93.5 µM. Further, the figures for the TGI in test [7] and in test [8] were above 100 µM and 7.75 µM, respectively.
Take `C=CCc1c(O)c(C(=O)/C=C/c2ccc(Cl)cc2)c(OC)c2ccoc12`: the GI50 was 2.3 µM in test [1]; 2.74 µM in test [2]; 3.25 µM in test [3]; 2.39 µM in test [4]; 3.2 µM in test [5]; 5.96 µM in test [6]. The GI50 in test [7] was 3.85 µM; in test [8] it was 2.88 µM. The TGI in test [1] amounted to 5.87 µM; in test [2], 8.51 µM; in test [3], 12 µM; in test [4], 6.62 µM; in test [5] it was 12.1 µM; in test [6], 19.2 µM. Also, the TGI amounted to 18.1 µM in test [7] and 10.1 µM in test [8].

In general, GI50 refers to the concentration giving 50% growth inhibition. The TGI is the concentration at which net growth stops.
